Results from patent publication US20230058171A1, “NEW ORAL PHARMACEUTICAL COMPOSITION FOR CANCER THERAPY” (BOEHRINGER INGELHEIM INTERNATIONAL GMBH, priority 2021, published 2023).

Test system: patients with advanced or metastatic solid tumors
Assay: Trial 1403-0001 Phase Ia dose escalation, Arm B (D1 D8 q4w): adverse events
Format: in vivo
Settings: for AEs leading to Discontinuation: Dose limiting toxicity, % / AEs leading to Discontinuation: Other adverse event, % / Patients with Dose limiting toxicity, % / Serious AEs: Cogenital Anomaly or Birth Defect, % / Serious AEs: Is Life Threatening, % / Serious AEs: Other Medically Important Serious Event, % / Serious AEs: Persists of Signif. Disability/Incapacity, % / Serious AEs: Requires or Prolongs Hospitalization, % / Serious AEs: Results in Death, % / Subjects with AEs leading to Discontinuation of trial drug, % / Subjects with AEs leading to dose reduction of trial drug, % / Subjects with any AE, % / Subjects with investigator defined drug-related AEs, % / Subjects with maximum CTC Grade 1, % / Subjects with maximum CTC Grade 2, % / Subjects with maximum CTC Grade 3, % / Subjects with maximum CTC Grade 4, % / Subjects with maximum CTC Grade 5, % / Subjects with serious AEs, %: Arm B D1 D8 q4w
Experimental: The Phase Ia dose escalation part aimed to define the Maximum Tolerated Dose (MTD) and the Recommended Dose for Expansion (RDE) for the MDM2-antagonist of formula I based on safety and tolerability, pharmacokinetics, pharmacodynamics, and preliminary efficacy. The RDE will be further explored in the Phase Ib expansion part of the trial.
Dose levels evaluated in Arm A were 10, 20, 30, 45, 50, 60, and 80 mg. Dose levels evaluated in Arm B (referring to the dose administered on Day 1 and Day 8) were 5, 10, 15, 20, 30, 45, and 60 mg.

Q: Which results are given for Cc1c(C(=O)O)ccc2c3n(nc12)[C@@H]1[C@H](C3)N(CC2CC2)[C@@]2(C(=O)Nc3cc(Cl)ccc32)[C@H]1c1cccc(Cl)c1F [MDM2-antagonist of formula I, (2′S,3′S,3a'S,10a'S)-6-chloro-3′-(3-chloro-2-fluorophenyl)-1′-(cyclopropylmethyl)-6′-methyl-2-oxo-1,2,3′,3a′,10′,10a′-hexahydro-1′H-spiro[indole-3,2′-pyrrolo[2′,3′:4,5]pyrrolo[1,2-b]indazole]-7′-carboxylic acid]?
A: AEs leading to Discontinuation: Dose limiting toxicity, % (5 mg): 0%; AEs leading to Discontinuation: Other adverse event, % (5 mg): 0%; Patients with Dose limiting toxicity, % (5 mg): 0%; Serious AEs: Cogenital Anomaly or Birth Defect, % (5 mg): 0%; Serious AEs: Is Life Threatening, % (5 mg): 0%; Serious AEs: Other Medically Important Serious Event, % (5 mg): 0%; Serious AEs: Persists of Signif. Disability/Incapacity, % (5 mg): 0%; Serious AEs: Requires or Prolongs Hospitalization, % (5 mg): 0%; Serious AEs: Results in Death, % (5 mg): 0%; Subjects with AEs leading to Discontinuation of trial drug, % (5 mg): 0%; Subjects with AEs leading to dose reduction of trial drug, % (5 mg): 0%; Subjects with any AE, % (5 mg): 100%; Subjects with investigator defined drug-related AEs, % (5 mg): 33.3%; Subjects with maximum CTC Grade 1, % (5 mg): 66.7%; Subjects with maximum CTC Grade 2, % (5 mg): 33.3%; Subjects with maximum CTC Grade 3, % (5 mg): 0%; Subjects with maximum CTC Grade 4, % (5 mg): 0%; Subjects with maximum CTC Grade 5, % (5 mg): 0%; Subjects with serious AEs, % (5 mg): 0%; AEs leading to Discontinuation: Dose limiting toxicity, % (10 mg): 0%; AEs leading to Discontinuation: Other adverse event, % (10 mg): 0%; Patients with Dose limiting toxicity, % (10 mg): 0%; Serious AEs: Cogenital Anomaly or Birth Defect, % (10 mg): 0%; Serious AEs: Is Life Threatening, % (10 mg): 0%; Serious AEs: Other Medically Important Serious Event, % (10 mg): 0%; Serious AEs: Persists of Signif. Disability/Incapacity, % (10 mg): 0%; Serious AEs: Requires or Prolongs Hospitalization, % (10 mg): 33.3%; Serious AEs: Results in Death, % (10 mg): 0%; Subjects with AEs leading to Discontinuation of trial drug, % (10 mg): 0%; Subjects with AEs leading to dose reduction of trial drug, % (10 mg): 33.3%; Subjects with any AE, % (10 mg): 100%; Subjects with investigator defined drug-related AEs, % (10 mg): 100%; Subjects with maximum CTC Grade 1, % (10 mg): 0%; Subjects with maximum CTC Grade 2, % (10 mg): 33.3%; Subjects with maximum CTC Grade 3, % (10 mg): 66.7%; Subjects with maximum CTC Grade 4, % (10 mg): 0%; Subjects with maximum CTC Grade 5, % (10 mg): 0%; Subjects with serious AEs, % (10 mg): 33.3%; AEs leading to Discontinuation: Dose limiting toxicity, % (15 mg): 0%; AEs leading to Discontinuation: Other adverse event, % (15 mg): 0%; Patients with Dose limiting toxicity, % (15 mg): 0%; Serious AEs: Cogenital Anomaly or Birth Defect, % (15 mg): 0%; Serious AEs: Is Life Threatening, % (15 mg): 0%; Serious AEs: Other Medically Important Serious Event, % (15 mg): 0%; Serious AEs: Persists of Signif. Disability/Incapacity, % (15 mg): 0%; Serious AEs: Requires or Prolongs Hospitalization, % (15 mg): 33.3%; Serious AEs: Results in Death, % (15 mg): 0%; Subjects with AEs leading to Discontinuation of trial drug, % (15 mg): 0%; Subjects with AEs leading to dose reduction of trial drug, % (15 mg): 0%; Subjects with any AE, % (15 mg): 100%; Subjects with investigator defined drug-related AEs, % (15 mg): 100%; Subjects with maximum CTC Grade 1, % (15 mg): 33.3%; Subjects with maximum CTC Grade 2, % (15 mg): 66.7%; Subjects with maximum CTC Grade 3, % (15 mg): 0%; Subjects with maximum CTC Grade 4, % (15 mg): 0%; Subjects with maximum CTC Grade 5, % (15 mg): 0%; Subjects with serious AEs, % (15 mg): 33.3%; AEs leading to Discontinuation: Dose limiting toxicity, % (20 mg): 0%; AEs leading to Discontinuation: Other adverse event, % (20 mg): 0%; Patients with Dose limiting toxicity, % (20 mg): 0%; Serious AEs: Cogenital Anomaly or Birth Defect, % (20 mg): 0%; Serious AEs: Is Life Threatening, % (20 mg): 0%; Serious AEs: Other Medically Important Serious Event, % (20 mg): 33.3%; Serious AEs: Persists of Signif. Disability/Incapacity, % (20 mg): 0%; Serious AEs: Requires or Prolongs Hospitalization, % (20 mg): 33.3%; Serious AEs: Results in Death, % (20 mg): 0%; Subjects with AEs leading to Discontinuation of trial drug, % (20 mg): 0%; Subjects with AEs leading to dose reduction of trial drug, % (20 mg): 0%; Subjects with any AE, % (20 mg): 100%; Subjects with investigator defined drug-related AEs, % (20 mg): 100%; Subjects with maximum CTC Grade 1, % (20 mg): 0%; Subjects with maximum CTC Grade 2, % (20 mg): 66.7%; Subjects with maximum CTC Grade 3, % (20 mg): 33.3%; Subjects with maximum CTC Grade 4, % (20 mg): 0%; Subjects with maximum CTC Grade 5, % (20 mg): 0%; Subjects with serious AEs, % (20 mg): 33.3%; AEs leading to Discontinuation: Dose limiting toxicity, % (30 mg): 0%; AEs leading to Discontinuation: Other adverse event, % (30 mg): 0%; Patients with Dose limiting toxicity, % (30 mg): 0%; Serious AEs: Cogenital Anomaly or Birth Defect, % (30 mg): 0%; Serious AEs: Is Life Threatening, % (30 mg): 0%; Serious AEs: Other Medically Important Serious Event, % (30 mg): 25.0%; Serious AEs: Persists of Signif. Disability/Incapacity, % (30 mg): 0%; Serious AEs: Requires or Prolongs Hospitalization, % (30 mg): 0%; Serious AEs: Results in Death, % (30 mg): 0%; Subjects with AEs leading to Discontinuation of trial drug, % (30 mg): 0%; Subjects with AEs leading to dose reduction of trial drug, % (30 mg): 50%; Subjects with any AE, % (30 mg): 100%; Subjects with investigator defined drug-related AEs, % (30 mg): 100%; Subjects with maximum CTC Grade 1, % (30 mg): 50.0%; Subjects with maximum CTC Grade 2, % (30 mg): 25.0%; Subjects with maximum CTC Grade 3, % (30 mg): 0%; Subjects with maximum CTC Grade 4, % (30 mg): 25.0%; Subjects with maximum CTC Grade 5, % (30 mg): 0%; Subjects with serious AEs, % (30 mg): 25.0%; AEs leading to Discontinuation: Dose limiting toxicity, % (45 mg): 0%; AEs leading to Discontinuation: Other adverse event, % (45 mg): 16.7%; Patients with Dose limiting toxicity, % (45 mg): 16.7%; Serious AEs: Cogenital Anomaly or Birth Defect, % (45 mg): 0%; Serious AEs: Is Life Threatening, % (45 mg): 0%; Serious AEs: Other Medically Important Serious Event, % (45 mg): 16.7%; Serious AEs: Persists of Signif. Disability/Incapacity, % (45 mg): 16.7%; Serious AEs: Requires or Prolongs Hospitalization, % (45 mg): 33.3%; Serious AEs: Results in Death, % (45 mg): 0%; Subjects with AEs leading to Discontinuation of trial drug, % (45 mg): 16.7%; Subjects with AEs leading to dose reduction of trial drug, % (45 mg): 16.7%; Subjects with any AE, % (45 mg): 100%; Subjects with investigator defined drug-related AEs, % (45 mg): 100%; Subjects with maximum CTC Grade 1, % (45 mg): 0%; Subjects with maximum CTC Grade 2, % (45 mg): 33.3%; Subjects with maximum CTC Grade 3, % (45 mg): 50.0%; Subjects with maximum CTC Grade 4, % (45 mg): 16.7%; Subjects with maximum CTC Grade 5, % (45 mg): 0%; Subjects with serious AEs, % (45 mg): 50.0%; AEs leading to Discontinuation: Dose limiting toxicity, % (60 mg): 0%; AEs leading to Discontinuation: Other adverse event, % (60 mg): 0%; Patients with Dose limiting toxicity, % (60 mg): 66.7%; Serious AEs: Cogenital Anomaly or Birth Defect, % (60 mg): 0%; Serious AEs: Is Life Threatening, % (60 mg): 0%; Serious AEs: Other Medically Important Serious Event, % (60 mg): 0%; Serious AEs: Persists of Signif. Disability/Incapacity, % (60 mg): 0%; Serious AEs: Requires or Prolongs Hospitalization, % (60 mg): 66.7%; Serious AEs: Results in Death, % (60 mg): 0%; Subjects with AEs leading to Discontinuation of trial drug, % (60 mg): 0%; Subjects with AEs leading to dose reduction of trial drug, % (60 mg): 66.7%; Subjects with any AE, % (60 mg): 100%; Subjects with investigator defined drug-related AEs, % (60 mg): 100%; Subjects with maximum CTC Grade 1, % (60 mg): 0%; Subjects with maximum CTC Grade 2, % (60 mg): 0%; Subjects with maximum CTC Grade 3, % (60 mg): 33.3%; Subjects with maximum CTC Grade 4, % (60 mg): 66.7%; Subjects with maximum CTC Grade 5, % (60 mg): 0%; Subjects with serious AEs, % (60 mg): 66.7%; AEs leading to Discontinuation: Dose limiting toxicity, % (Total): 0%; AEs leading to Discontinuation: Other adverse event, % (Total): 4.0%; Patients with Dose limiting toxicity, % (Total): 12.0%; Serious AEs: Cogenital Anomaly or Birth Defect, % (Total): 0%; Serious AEs: Is Life Threatening, % (Total): 0%; Serious AEs: Other Medically Important Serious Event, % (Total): 12.0%; Serious AEs: Persists of Signif. Disability/Incapacity, % (Total): 4.0%; Serious AEs: Requires or Prolongs Hospitalization, % (Total): 28.0%; Serious AEs: Results in Death, % (Total): 0%; Subjects with AEs leading to Discontinuation of trial drug, % (Total): 4.0%; Subjects with AEs leading to dose reduction of trial drug, % (Total): 24%; Subjects with any AE, % (Total): 100%; Subjects with investigator defined drug-related AEs, % (Total): 92.0%; Subjects with maximum CTC Grade 1, % (Total): 20.0%; Subjects with maximum CTC Grade 2, % (Total): 36.0%; Subjects with maximum CTC Grade 3, % (Total): 28.0%; Subjects with maximum CTC Grade 4, % (Total): 16.0%; Subjects with maximum CTC Grade 5, % (Total): 0%; Subjects with serious AEs, % (Total): 36.0%; Subjects with AEs leading to dose reduction of trial drug, % (Total, listed as Comp. I): 24.0%; AE alopecia, patients (Arm B, all 25 patients): 24.0%; AE decreased appetite, patients (Arm B, all 25 patients): 40.0%; AE diarrhea, patients (Arm B, all 25 patients): 44.0%; AE fatigue, patients (Arm B, all 25 patients): 52.0%; AE nausea, patients (Arm B, all 25 patients): 92.0%; AE platelet count decreased, patients (Arm B, all 25 patients): 28.0%; AE vomiting, patients (Arm B, all 25 patients): 64.0%; Grade 3 AE anemia, patients (Arm B, all 25 patients): 8.0%; Grade 3 AE platelet count decreased, patients (Arm B, all 25 patients): 8.0%; Grade 4 AE neutrophil count decreased, patients (Arm B, all 25 patients): 8.0%; Grade 4 AE platelet count decreased, patients (Arm B, all 25 patients): 8.0%; SAE platelet count decreased, patients (Arm B, all 25 patients): 8.0%; dose reduction due to diarrhea, patients (Arm B, all 25 patients): 4.0%; dose reduction due to neutropenia and/or thrombocytopenia, patients (Arm B, all 25 patients): 20.0%; drug-related AE alopecia, patients (Arm B, all 25 patients): 24.0%; drug-related AE decreased appetite, patients (Arm B, all 25 patients): 28.0%; drug-related AE diarrhea, patients (Arm B, all 25 patients): 32.0%; drug-related AE fatigue, patients (Arm B, all 25 patients): 40.0%; drug-related AE nausea, patients (Arm B, all 25 patients): 76.0%; drug-related AE platelet count decreased, patients (Arm B, all 25 patients): 28.0%; drug-related AE vomiting, patients (Arm B, all 25 patients): 60.0%; fatal AEs (Arm B, all 25 patients): No fatal AEs were reported
